Experimental data: patent publication US20240299334A1, “PHARMACEUTICAL COMPOSITION OF NAPHTHALENE DERIVATIVES AS MULTI-TARGETED THERAPEUTIC AGENTS FOR THE TREATMENT OF ALZHEIMER'S DISEASE” (CENTRO DE NEUROCIENCIAS DE CUBA, CNEURO, priority 2020, published 2024)

Legend:
[1] = test system: amnesia induced by the acute administration of scopolamine; assay: Object discrimination test, intranasal administration, acute ESC; assay type: in vivo, mice; settings: nasal formulation, single intranasal dose (74 μg/kg); ESC 1.5 mg/kg ip; vs control groups
Source text: Male C57BL/6 mice (20-25 g), supplied by the National Center for the Laboratory Animals Production (CENPALAB, Cuba) were used. The conditions of adaptation and maintenance of the animals before carrying out the experiment were similar to those developed in non-limiting Example 4.
At the end of the adaptation period, the animals were randomly distributed according to their body weights in four experimental groups of 10 animals each: two healthy control groups, one administered with a vehicle via the nasal route (G1) and the other with saline solution via. ip (G2); a sick control group, administered with nasal saline and then, with ESC dissolved in saline solution (1.5 mg/kg, ip) (G3) and a treated group, administered with compound 3 prepared according to the formulation of non-limiting Example 10 and after 15 minutes the ESC is administered (1.5 mg/kg, ip) (G4). This experiment was carried out in two experimental series under the same conditions described in order to study the effects of the nasal formulation of compound 3 in two behavioral models: Y-maze in the hidden arm modality and the object discrimination model. […]
The Object Recognition Test (ORT) is a commonly used behavioral test for the investigation of various aspects of learning and memory, particularly recognition memory, in rodent models of CNS disorders. […] The behavior of the animal was recorded using a video camera. […]

[2] = test system: memory loss induced by an acute administration of scopolamine (ESC); assay: Morris water maze, two-day protocol, acute ESC model; assay type: in vivo, mice; settings: long-term spatial memory
Method: Young male OF-1 mice (20-25 g), supplied by the National Center for the Laboratory Animals Production (CENPALAB, Cuba), were used. Before the experiment, the animals were adapted for seven days to laboratory conditions (controlled temperature 25±2° C., relative humidity 60±10% and light/dark cycles of 12 h). During this period, and during the experiment, the animals received ad libitum water and a standard diet for rodents supplied by CENPALAB. All procedures were carried out in accordance with the European Commission guidelines for the use and care of laboratory animals and approved by the Committee for the Care of Research Animals. The minimum number of animals and duration of observations required to obtain consistent data was used.
At the end of the adaptation period, the animals were randomly distributed according to their body weights in 5 experimental groups of 12 animals per group. […]
The experience was carried out for two days; a first day of training and a second day of testing. […] 24 hours after the last visible platform test (D2), the animals were evaluated in a series of three tests with the hidden platform (T1-T3). […]
All data are expressed as the mean±standard error of the mean (SEM). The Morris water maze data was analyzed in two ways. Escape latencies in the visible platform training phase were analyzed using a two-factor ANOVA (treatment×trial). […]

With `CSC(=S)NCCNC(=O)CCC(=O)Nc1cccc2ccccc12` [compound 3, methyl(2-{[4-(1-naphthylamino)-4-oxobutanoyl]amino}ethyl)dithiocarbamate] the “discrimination index (DI) of the novel object” value [1] was “No significant differences were observed in the discrimination index” and the “difference and ratio of escape latency, last visible-platform test vs first hidden-platform test” value [2] was “differs significantly from the group with ESC”.
